Measured values published in PubChem BioAssay (NCI).
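In this assay, cells in 96-well plates receive the compound at five concentrations for 48 hours. Endpoints are linearly interpolated between the surrounding concentrations. At the GI50, growth is halved. Definition used: TGI = concentration required for complete inhibition of growth.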

Key:
Test in all cases: NCI tumour cell line growth inhibition, 48 h
KM20L2 colon = test system: KM20L2 colon
MCF7 breast = test system: MCF7 breast
P388 leukemia = test system: P388 leukemia
P388/ADR leukemia = test system: P388/ADR leukemia
SN12K1 renal = test system: SN12K1 renal
RXF-631 renal = test system: RXF-631 renal

O=C1C=C(C2OC(CO)C(O)C2O)C(=O)N1 (centres undefined)
TGI (KM20L2 colon): > 100 µM
TGI (MCF7 breast): > 100 µM
TGI (P388 leukemia): 60.9 µM
TGI (P388/ADR leukemia): 68.5 µM
TGI (SN12K1 renal): > 100 µM

N#C[S-].[La+3].c1cnc2c(c1)ccc1cccnc12.c1cnc2c(c1)ccc1cccnc12.c1cnc2c(c1)ccc1cccnc12
GI50 (KM20L2 colon): 0.986 µM
TGI (KM20L2 colon): 16.4 µM

OC(CC1CCCCN1)c1ccc2c(c1)oc1ccccc12 (centres undefined)
TGI (MCF7 breast): > 100 µM

CC1(C)[C@@H]2CC[C@]1(C)[C@H](OC(=O)CSC#N)C2
TGI (MCF7 breast): > 100 µM

COc1cc2c(cc1O)c(O)cc1c3cc(OC)c(OC)cc3c[n+](C)c21
TGI (MCF7 breast): > 100 µM

Cc1ccc2c(ccc(/C=C/c3ccc(O)c4ncccc34)[n+]2C)c1
TGI (KM20L2 colon): 20.1 µM

O=C(c1ccccc1)c1ccc2n[se]nc2c1
TGI (KM20L2 colon): > 100 µM
TGI (RXF-631 renal): > 100 µM

CN(C)/C=C/C(=CC=[N+](C)C)/C=C/N(C)C
TGI (RXF-631 renal): > 100 µM

CCC1C[N+]23CCc4c([nH]c5ccccc45)C2CC1CC3 (centres undefined)
TGI (KM20L2 colon): > 100 µM

CN(C)CCNC(=O)c1cccc2c(=O)c3ccccc3oc12
TGI (KM20L2 colon): > 100 µM
TGI (MCF7 breast): 74 µM
TGI (P388 leukemia): 52.2 µM
TGI (P388/ADR leukemia): 73.2 µM
TGI (SN12K1 renal): 47.5 µM

CCOP(=Nc1ccc(N(C)C)cc1)(OCC)OCC
TGI (MCF7 breast): > 100 µM

OC(CNc1ccccn1)c1ccccc1 (centres undefined)
TGI (MCF7 breast): > 100 µM

Cc1ccc(S(=O)(=O)Nc2cccc3c(=O)[nH]cnc23)cc1
TGI (KM20L2 colon): > 100 µM

CC(=O)C(C(c1ccccc1)N1CCOCC1)N1CCOCC1 (centres undefined)
TGI (MCF7 breast): > 100 µM

CC1=C2C(O)C(C(C)C(=O)N(C)C)CCC2(C)C=CC1=O (centres undefined)
TGI (KM20L2 colon): > 100 µM
TGI (MCF7 breast): > 100 µM
TGI (P388 leukemia): > 100 µM
TGI (P388/ADR leukemia): > 100 µM
TGI (SN12K1 renal): > 100 µM
